Test results as given in US20130029970A1 (priority 2009, published 2013).
Where two headings read alike, the source gives them in different places.

Tests used:
human CB1 receptors = target: T1, human CB1 receptors (Homo sapiens, UniProt P21554); assay: cAMP assay in HEK-293 cells, hCB1 agonist; type: cell-based; details: inhibition of forskolin-stimulated cAMP, HEK-293 cells
T1 construct: (cDNA clone) CNR01L000
Excerpt: (§1) Stable, HEK-293-derived cell lines that recombinantly express hCBI or hCB2 were established. In brief, the clone hCB1 (CNR IL) or hCB2 (CNR2) was transfected into human embryonic kidney cells (HEK-293) using Lipofectamine 2000 (Gibco, Cat#11668-019) according to the manufacturer's protocol. Transfected clones were isolated by single colony purification and clones were screened for receptor expression using a whole cell, ^3H—CP 55,940 radioligand binding assay. HEK-293 stable cells were maintained in Dulbecco's modified Eagles medium (DMEM) containing 10% fetal bovine serum, 2 mM L-glutamine and 0.5 mg/mL G-418.
(§2) Functional assays which monitor G-protein coupled receptor or downstream cellular responses can be used to characterize potential CB1 receptor and/or CB2 receptor agonist or antagonist activities. Direct activation (or inhibition of activation) can be monitored using a GTPγS assay (membrane-based assay) or cAMP assay (whole cell-based assay).
(§3) cAMP assays were performed in HEK-293 cells stably expressing human CB1 or CB2 receptors. For cannabinoid receptor functional assays measuring agonist effects on cellular cAMP levels, monolayers of cultured cells were harvested with enzyme-free PBS-based cell dissociation buffer (Gibco, Cat#13151-04). Cells suspensions were centrifuged and the cells were washed once with PBS, were centrifuged again, and the cells were re-suspended in HBSS (Hank's Balanced Salt Solution, Cellgro, Cat #21-022-CV) solution containing 10 mM HEPES and 0.1% fatty acid free BSA (Sigma, Cat #A0281). Cell suspensions were prepared at 1,500,000 cells per ml. Stock solutions of test substances (10 mM) in DMSO were diluted to 1 mM using 30% DMSO as diluent. Test substances of solutions (1 mM) were further diluted down to 3× of final assay concentrations in the above HBSS buffer containing 0.1% BSA in the presence of 90 uM forskolin (Sigma Cat#F6886). To perform the assay, 20 uL of cell suspension (1,500,000 cells/mL) were added to each well in 96 well plate and treated with 10 uL test substance solution diluted as described above. Cells and compounds were incubated at 37° C. for 30 minutes. Cells were lysed and cAMP concentration was measured using DiscoveRx −XS+ cAMP assay kit (DiscoveRx Corporation Ltd., Fremont, Calif., USA, Cat #90-0075-03), following the manufacturer's protocol. GraphPad Prism software was used to calculate EC50 values using sigmoidal dose response curve fitting. The maximal amount of cAMP produced by forskolin was defined as 100%. CB1 or CB2 agonists reduced forskolin-stimulated cAMP signaling. The EC50 value of an agonist compound was defined as the concentration at which 50% of the forskolin-stimulated cAMP synthesis was inhibited.

human CB2 receptors = target: T2, human CB2 receptors (Homo sapiens, UniProt P34972); assay: cAMP assay in HEK-293 cells, hCB2 agonist; type: cell-based; details: for hCB2 EC50 (cAMP ag, nM): inhibition of forskolin-stimulated cAMP, HEK-293 cells
T2 construct: (cDNA clone) CNR0200000
T2 sequence (P34972 whole entry): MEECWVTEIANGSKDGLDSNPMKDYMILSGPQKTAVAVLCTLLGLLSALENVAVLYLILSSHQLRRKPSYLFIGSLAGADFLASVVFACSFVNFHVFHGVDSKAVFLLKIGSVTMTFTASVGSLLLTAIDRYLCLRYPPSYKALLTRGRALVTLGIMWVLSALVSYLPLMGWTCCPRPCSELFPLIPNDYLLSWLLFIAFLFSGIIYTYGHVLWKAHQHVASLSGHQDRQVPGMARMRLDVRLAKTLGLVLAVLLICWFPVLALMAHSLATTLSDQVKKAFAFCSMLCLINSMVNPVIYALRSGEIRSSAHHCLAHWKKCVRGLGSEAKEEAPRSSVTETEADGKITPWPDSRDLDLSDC
Method: as §2
as §3, with “For cannabinoid receptor functional assays measuring agonist effects on cellular cAMP levels, monolayers of cultured cells were harvested with enzyme-free PBS-based cell dissociation buffer (Gibco, Cat#13151-04).” left out, “100%.” for “100%. CB1 or CB2 agonists reduced forskolin-stimulated cAMP signaling. The EC50 value of an agonist compound was defined as the concentration at which 50% of the forskolin-stimulated cAMP synthesis was inhibited.”

[1] = target: T3, recombinant human cannabinoid receptor CB1 (Homo sapiens, UniProt P21554); assay: Cannabinoid receptor radioligand binding assay, [3H]-CP 55,940 displacement, hCB1
T3 construct: (cDNA clone) CNR01L000
T3 sequence (P21554 whole entry): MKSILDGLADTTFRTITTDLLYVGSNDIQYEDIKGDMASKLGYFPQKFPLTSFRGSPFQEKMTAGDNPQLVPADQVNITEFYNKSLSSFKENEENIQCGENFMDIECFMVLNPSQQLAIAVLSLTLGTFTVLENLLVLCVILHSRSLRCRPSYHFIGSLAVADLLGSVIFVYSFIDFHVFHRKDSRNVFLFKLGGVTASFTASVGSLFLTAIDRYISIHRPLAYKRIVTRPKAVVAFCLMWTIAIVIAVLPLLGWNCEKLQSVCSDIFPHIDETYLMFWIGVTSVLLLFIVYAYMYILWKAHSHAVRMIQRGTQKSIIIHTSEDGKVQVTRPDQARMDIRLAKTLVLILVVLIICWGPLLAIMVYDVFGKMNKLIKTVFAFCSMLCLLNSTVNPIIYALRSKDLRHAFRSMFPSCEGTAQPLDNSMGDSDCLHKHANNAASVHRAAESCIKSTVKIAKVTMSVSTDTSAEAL
Excerpt: as §1
(§4) Membranes were isolated from transfected cells as follows. Monolayers of cultured cells were washed twice with phosphate-buffered saline (PBS). Cells were scraped into 20 mM HEPES, pH 7.4, 10 mM EDTA containing complete cocktail protease inhibitors (Roche, Catalog #11 697 498 001) and were homogenized by an electric-powered mechanical probe homogenizer (Omni GLH; probe G7-195S) for 40 seconds at 7000 rpm. Homogenates were centrifuged 10 minutes at 1000×g at 4° C. The supernatant was collected and was centrifuged for 1 hour at 40,000×g. The supernatant was then decanted and the resulting pellet was re-suspended in 20 mM HEPES, pH 7.4, 5 mM MgCl2, 1 mM EDTA, 10% sucrose with complete cocktail protease inhibitors. Protein concentration of membrane suspensions were measured by Bradford Protein Assay using bovine serum albumin as the standard (BioRad catalog #500-0006). Protein concentrations of membrane suspensions were adjusted with the final buffer in the range of 5 to 10 mg/mL and were stored at −80° C. until further use.
Radioligand binding assays were performed by incubating membranes (2-10 μg protein) prepared from HEK-293 cells expressing recombinant human cannabinoid receptors, CB1 or CB2, at room temperature with 0.5 nM cannabinoid receptor agonist, [^3H]-CP 55,940 (Perkin Elmer, catalog #NET1051) in 0.2 mL of binding buffer (50 mM Tris-HCl, pH 7.5, 5 mM MgCl2, 2.5 mM EDTA) and 0.1% fatty acid free bovine serum albumin (Sigma Cat. #A0821) for 90 minutes. A rapid filtration technique using Millipore FB filter plates (Catalog #MADVNOB) and filtration apparatus (Millipore system Catalog MAVM0960R) with vacuum aspiration was used to harvest and rinse labeled membranes (8 times with 0.2 mL of chilled binding buffer). The radioactivity bound to the filters was counted with 0.05 mL of liquid scintillant (UltraGold MV, PerkinElmer catalog #6013159) in a scintillation counter (Perkin Elmer Microbeta instrument). Nonspecific binding was determined in the presence of unlabeled 1 μM CP 55,940 (Sigma Aldrich, catalog #C1112). Binding data were analyzed using GraphPad Prism (GraphPad Software, Inc. San Diego, Calif.).

[2] = target: T4, recombinant human cannabinoid receptor CB2 (Homo sapiens, UniProt P34972); assay: Cannabinoid receptor radioligand binding assay, [3H]-CP 55,940 displacement, hCB2
T4 construct: (cDNA clone) CNR0200000
T4 sequence (P34972 whole entry): as the sequence (P34972 whole entry) above
Method: as §4, with “Cells were scraped into 20 mM HEPES, pH 7.4, 10 mM EDTA containing complete cocktail protease inhibitors (Roche, Catalog #11 697 498 001) and were homogenized by an electric-powered mechanical probe homogenizer (Omni GLH; probe G7-195S) for 40 seconds at 7000 rpm.” left out
A rapid filtration technique using Millipore FB filter plates (Catalog #MADVNOB) and filtration apparatus (Millipore system Catalog MAVM0960R) with vacuum aspiration was used to harvest and rinse labeled membranes (8 times with 0.2 mL of chilled binding buffer). […] Binding data were analyzed using GraphPad Prism (GraphPad Software, Inc. San Diego, Calif.).

[3] = displacement of 0.5 nM [3H]-CP 55,940, read-out: hCB1 IC50 (CP displ)
[4] = displacement of 0.5 nM [3H]-CP 55,940, read-out: hCB2 IC50 (CP displ)

T1 sequence (P21554 whole entry): as the sequence (P21554 whole entry) above

| Compound | hCB1 EC50 (cAMP ag, nM) (human CB1 receptors) | EC50 (human CB2 receptors) [µM] | IC50 [1, 3] [µM] | IC50 [2, 4] [µM] | IC50 [1] [µM] | IC50 [2] [µM] | EC50 (human CB1 receptors; read-out: hCB1 EC50 (cAMP ag)) [µM] | hCB2 EC50 (cAMP ag, nM) (human CB2 receptors) |
| --- | --- | --- | --- | --- | --- | --- | --- | --- |
| Cc1cc2cc(C(=O)c3cccc(Cl)c3Cl)sc2[nH]1 [Compound 2, (2,3-dichlorophenyl)(5-methyl-6H-thieno[2,3-b]pyrrol-2-yl)methanone] | NS (NS means “Not Significant,” which means less than 30% agonist activity when compared to the positive control.) | 1 to 10 | > 10 | 1 to 10 |  |  |  |  |
| Cc1cc2cc(C(=O)c3cccnc3)sc2n1CCN1CCOCC1 [Compound 14, (5-Methyl-6-(2-morpholinoethyl)-6H-thieno[2,3-b]pyrrol-2-yl)(pyridin-3-yl)methanone] | NS (NS means “Not Significant,” which means less than 30% agonist activity when compared to the positive control.) | 0.1 to 1 |  |  | > 10 | 1 to 10 |  |  |
| Cc1cc2cc(C(=O)c3ccccn3)sc2n1CCN1CCOCC1 [Compound 16] | NS (NS means “Not Significant,” which means less than 30% agonist activity when compared to the positive control.) | 0.1 to 1 |  |  | > 10 | 1 to 10 |  |  |
| Cc1cc2cc(C(=O)c3cccc(Cl)c3Cl)sc2n1CC(=O)N1CCOCC1 [Compound 22, 2-(2-(2,3-Dichlorobenzoyl)-5-methyl-6H-thieno[2,3-b]pyrrol-6-yl)-1-morpholinoethanone] |  | 0.1 to 1 |  |  | > 10 | 1 to 10 | 0.1 to 1 |  |
| Cc1cc2cc(C(=O)c3ccncn3)sc2n1CCN1CCOCC1 [Compound 34, (5-Methyl-6-(2-morpholinoethyl)-6H-thieno[2,3-b]pyrrol-2-yl)(pyrimidin-4-yl)methanone] | NS (NS means “Not Significant,” which means less than 30% agonist activity when compared to the positive control.) | 1 to 10 | > 10 | > 10 |  |  |  |  |
| Cc1cc2cc(C(=O)c3ccncc3)sc2n1CCN1CCOCC1 [Compound 40, (5-Methyl-6-(2-morpholinoethyl)-6H-thieno[2,3-b]pyrrol-2-yl)(pyridin-4-yl)methanone] | NS (NS means “Not Significant,” which means less than 30% agonist activity when compared to the positive control.) | 0.1 to 1 |  |  | > 10 | 1 to 10 |  |  |
| COc1ccc(C(=O)c2cc3cc(C)n(CCC(=O)O)c3s2)cc1 [Compound 73, 3-(2-(4-Methoxybenzoyl)-5-methyl-6H-thieno[2,3-b]pyrrol-6-yl)propanoic acid] | NS (NS means “Not Significant,” which means less than 30% agonist activity when compared to the positive control.) |  | > 10 | > 10 |  |  |  | NS (NS means “Not Significant,” which means less than 30% agonist activity when compared to the positive control.) |
| CCS(=O)(=O)NCCCn1c(C)cc2cc(C(=O)c3ccc(OC)cc3)sc21 [Compound 74, N-(3-(2-(4-Methoxybenzoyl)-5-methyl-6H-thieno[2,3-b]pyrrol-6-yl)propyl)ethanesulfonamide] | NS (NS means “Not Significant,” which means less than 30% agonist activity when compared to the positive control.) | 0.1 to 1 |  |  | > 10 | 1 to 10 |  |  |
| COc1ccc(C(=O)c2cc3cc(C)[nH]c3s2)c(Cl)c1 [Compound 79, (2-Chloro-4-methoxyphenyl)(5-methyl-6H-thieno[2,3-b]pyrrol-2-yl)methanone] | NS (NS means “Not Significant,” which means less than 30% agonist activity when compared to the positive control.) | 0.1 to 1 |  |  | > 10 | > 10 |  |  |
| COc1ccc(C(=O)c2cc3cc(C)n(CCCNS(=O)(=O)c4ccccc4)c3s2)cc1 [Compound 81, N-(3-(2-(4-Methoxybenzoyl)-5-methyl-6H-thieno[2,3-b]pyrrol-6-yl)propyl)benzenesulfonamide] | NS (NS means “Not Significant,” which means less than 30% agonist activity when compared to the positive control.) |  | > 10 | 1 to 10 |  |  |  | NS (NS means “Not Significant,” which means less than 30% agonist activity when compared to the positive control.) |
| COc1ccc(C(=O)c2cc3cc(C)n(CCN4CCOCC4=O)c3s2)cn1 [Compound 148, 4-(2-(2-(6-methoxynicotinoyl)-5-methyl-6H-thieno[2,3-b]pyrrol-6-yl)ethyl)morpholin-3-one] | NS (NS means “Not Significant,” which means less than 30% agonist activity when compared to the positive control.) |  | > 10 | > 10 |  |  |  |  |
